Measurements reported in ChEMBL document CHEMBL5143550, “Thiol- and Disulfide-Containing Vancomycin Derivatives Against Bacterial Resistance and Biofilm Formation” (2021).
Converted amounts (≈) assume the structure as drawn.

Assays:
Type in all cases: functional
Staphylococcus aureus [1] = experiment: Antibacterial activity against Staphylococcus aureus ATCC 25923 assessed as inhibition of bacterial growth by standard broth microdilution susceptibility method
Staphylococcus aureus [2] = experiment: Antibacterial activity against methicillin-resistant Staphylococcus aureus ATCC 43300 assessed as inhibition of bacterial growth by standard broth microdilution susceptibility method
Staphylococcus aureus [3] = experiment: Antibacterial activity against vancomycin-intermediate Staphylococcus aureus ATCC NRS1 assessed as inhibition of bacterial growth by standard broth microdilution susceptibility method
Staphylococcus aureus [4] = experiment: Antibacterial activity against heterogenous vancomycin-intermediate Staphylococcus aureus ATCC NRS24 assessed as inhibition of bacterial growth by standard broth microdilution susceptibility method
Enterococcus faecium [5] = experiment: Antibacterial activity against VanA-resistant Enterococcus faecium MMX0485 assessed as inhibition of bacterial growth by standard broth microdilution susceptibility method
Enterococcus faecalis [6] = experiment: Antibacterial activity against VanB-resistant Enterococcus faecalis ATCC 51299 assessed as inhibition of bacterial growth by standard broth microdilution susceptibility method
Enterococcus gallinarum [7] = experiment: Antibacterial activity against VanC-resistant Enterococcus gallinarum ATCC 700221 assessed as inhibition of bacterial growth by standard broth microdilution susceptibility method
Streptococcus pneumoniae = experiment: Antibacterial activity against […] assessed as inhibition of bacterial growth by standard broth microdilution susceptibility method
Clostridioides difficile = experiment: Antibacterial activity against Clostridium difficile ATCC 43255 assessed as inhibition of bacterial growth by standard broth microdilution susceptibility method
Moraxella catarrhalis = experiment: Antibacterial activity against Moraxella catarrhalis ATCC 8193 assessed as inhibition of bacterial growth by standard broth microdilution susceptibility method
Enterococcus faecium [8] = experiment: Potency index, ratio of vancomycin MIC to test compound MIC for antibacterial activity against VanA-resistant Enterococcus faecium MMX0485 assessed as inhibition of bacterial growth by standard broth microdilution susceptibility method
Enterococcus faecalis [9] = experiment: Potency index, ratio of vancomycin MIC to test compound MIC for antibacterial activity against VanB-resistant Enterococcus faecalis ATCC 51299 assessed as inhibition of bacterial growth by standard broth microdilution susceptibility method
Enterococcus gallinarum [10] = experiment: Potency index, ratio of vancomycin MIC to test compound MIC for antibacterial activity against VanC-resistant Enterococcus gallinarum ATCC 700221 assessed as inhibition of bacterial growth by standard broth microdilution susceptibility method
Enterococcus faecalis [11] = experiment: Antibiofilm activity against VanB-resistant Enterococcus faecalis ATCC 51299 assessed as inhibition of biofilm formation in BHIG medium incubated for 24 hrs by resazurin assay
Enterococcus faecalis [12] = experiment: Antibiofilm activity against VanB-resistant Enterococcus faecalis ATCC 51299 assessed as inhibition of biofilm formation by measuring decrease in RFU in BHIG medium incubated for 24 hrs by resazurin assay
Enterococcus faecalis [13] = experiment: Antibacterial activity against VanB-resistant Enterococcus faecalis ATCC 51299 assessed as inhibition of colony formation in BHIG medium incubated for 24 hrs by resazurin assay
Enterococcus faecalis [14] = experiment: Antibacterial activity against VanB-resistant Enterococcus faecalis ATCC 51299 assessed as inhibition of bacterial growth in BHIG medium incubated for 24 hrs by resazurin assay
Enterococcus faecalis [15] = experiment: Antibiofilm activity against VanB-resistant Enterococcus faecalis ATCC 51299 assessed as inhibition of biofilm formation in BHIG medium incubated for 24 hrs by resazurin assay relative to vancomycin
Staphylococcus aureus [16] = experiment: Potency index, ratio of vancomycin MIC to test compound MIC for antibacterial activity against vancomycin-intermediate Staphylococcus aureus ATCC NRS1 assessed as inhibition of bacterial growth by standard broth microdilution susceptibility method
Staphylococcus aureus [17] = experiment: Potency index, ratio of vancomycin MIC to test compound MIC for antibacterial activity against heterogenous vancomycin-intermediate Staphylococcus aureus ATCC NRS24 assessed as inhibition of bacterial growth by standard broth microdilution susceptibility method

| SMILES | MIC (Staphylococcus aureus [1]) | MIC (Staphylococcus aureus [2]) | MIC (Staphylococcus aureus [3]) | MIC (Staphylococcus aureus [4]) | MIC (Enterococcus faecium [5]) | MIC (Enterococcus faecalis [6]) | MIC (Enterococcus gallinarum [7]) | MIC (Streptococcus pneumoniae) | MIC (Clostridioides difficile) | MIC (Moraxella catarrhalis) | Ratio (Enterococcus faecium [8]) | Ratio (Enterococcus faecalis [9]) | Ratio (Enterococcus gallinarum [10]) | MBIC (Enterococcus faecalis [11]) | inhibition (INH) (Enterococcus faecalis [12]) | Activity (Enterococcus faecalis [13]) | inhibition (INH) (Enterococcus faecalis [14]) | Ratio (Enterococcus faecalis [15]) | Ratio (Staphylococcus aureus [16]) | Ratio (Staphylococcus aureus [17]) |
| --- | --- | --- | --- | --- | --- | --- | --- | --- | --- | --- | --- | --- | --- | --- | --- | --- | --- | --- | --- | --- |
| CN[C@H](CC(C)C)C(=O)N[C@H]1C(=O)N[C@@H](CC(N)=O)C(=O)N[C@H]2C(=O)N[C@H]3C(=O)N[C@H](C(=O)N[C@H](C(=O)NCCSSCCCCC[N+](C)(C)C)c4cc(O)cc(O)c4-c4cc3ccc4O)[C@H](O)c3ccc(c(Cl)c3)Oc3cc2cc(c3O[C@@H]2O[C@H](CO)[C@@H](O)[C@H](O)[C@H]2O[C@H]2C[C@](C)(N)[C@H](O)[C@H](C)O2)Oc2ccc(cc2Cl)[C@H]1O | 1 µg/mL | 0.5 µg/mL | 1 µg/mL | > 32 µg/mL | 16 µg/mL | 8 µg/mL | 4 µg/mL | 0.06 µg/mL | ≤ 0.015 µg/mL | 2 µg/mL | 8 | 8 | 8 | 16 µg/mL | 87% | 16 µg/mL | 97% |  |  |  |
| CN[C@H](CC(C)C)C(=O)N[C@H]1C(=O)N[C@@H](CC(N)=O)C(=O)N[C@H]2C(=O)N[C@H]3C(=O)N[C@H](C(=O)N[C@H](C(=O)NCCSSc4ccccn4)c4cc(O)cc(O)c4-c4cc3ccc4O)[C@H](O)c3ccc(c(Cl)c3)Oc3cc2cc(c3O[C@@H]2O[C@H](CO)[C@@H](O)[C@H](O)[C@H]2O[C@H]2C[C@](C)(N)[C@H](O)[C@H](C)O2)Oc2ccc(cc2Cl)[C@H]1O | 4 µg/mL (≈ 2.47 µM) | 2 µg/mL (≈ 1.24 µM) | 4 µg/mL (≈ 2.47 µM) | 4 µg/mL (≈ 2.47 µM) | 8 µg/mL (≈ 4.95 µM) | 16 µg/mL (≈ 9.89 µM) | 8 µg/mL (≈ 4.95 µM) | 0.5 µg/mL (≈ 0.309 µM) | 0.5 µg/mL (≈ 0.309 µM) | > 32 µg/mL |  |  |  | 16 µg/mL | 99% | 16 µg/mL | 100% |  |  |  |
| CN[C@H](CC(C)C)C(=O)N[C@H]1C(=O)N[C@@H](CC(N)=O)C(=O)N[C@H]2C(=O)N[C@H]3C(=O)N[C@H](C(=O)N[C@H](C(=O)NCCS)c4cc(O)cc(O)c4-c4cc3ccc4O)[C@H](O)c3ccc(c(Cl)c3)Oc3cc2cc(c3O[C@@H]2O[C@H](CO)[C@@H](O)[C@H](O)[C@H]2O[C@H]2C[C@](C)(N)[C@H](O)[C@H](C)O2)Oc2ccc(cc2Cl)[C@H]1O | 4 µg/mL (≈ 2.65 µM) | 4 µg/mL (≈ 2.65 µM) |  |  |  | 2 µg/mL (≈ 1.33 µM) | 2 µg/mL (≈ 1.33 µM) |  |  |  |  |  |  | 4 µg/mL | 99% | 4 µg/mL | 100% | 16 |  |  |
| CCCCCCCCCCCSSCCNC(=O)[C@H]1NC(=O)[C@H]2NC(=O)[C@H](NC(=O)[C@@H]3NC(=O)[C@H](CC(N)=O)NC(=O)[C@H](NC(=O)[C@@H](CC(C)C)NC)[C@H](O)c4ccc(c(Cl)c4)Oc4cc3cc(c4O[C@@H]3O[C@H](CO)[C@@H](O)[C@H](O)[C@H]3O[C@H]3C[C@](C)(N)[C@H](O)[C@H](C)O3)Oc3ccc(cc3Cl)[C@H]2O)c2ccc(O)c(c2)-c2c(O)cc(O)cc21 | 1 µg/mL (≈ 0.59 µM) | 1 µg/mL (≈ 0.59 µM) | 0.5 µg/mL (≈ 0.295 µM) | 1 µg/mL (≈ 0.59 µM) | 2 µg/mL (≈ 1.18 µM) | 0.25 µg/mL (≈ 0.148 µM) | 4 µg/mL (≈ 2.36 µM) | 0.25 µg/mL (≈ 0.148 µM) | 0.12 µg/mL (≈ 0.0708 µM) | 0.5 µg/mL (≈ 0.295 µM) | 16 | 16 |  | 2 µg/mL | 92% | 2 µg/mL | 99% |  | 16 | 16 |
